In PubChem BioAssay AID248 (DTP/NCI, 2004):
Several values for one entry are separate records, joined by “and”; a condition that tells them apart may be missing. Equal values may be shown once. Toxic doses and inconclusive results are not listed. Cut-off read from the data, not from the text of the source: active = T/C of 150% or more; inactive = T/C below 125%.

System: L1210 leukemia ip in BDF1 mice, survival T/C
Assay: NCI In Vivo Anticancer Drug Screen. Data for tumor model L1210 Leukemia (intraperitoneal) in B6D2F1 (BDF1) mice
Conditions: endpoint: mean survival time, higher = longer survival
How it was run: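 Mice bearing the transplanted tumor received compound or vehicle. Survival of the treated group was divided by that of the vehicle-treated control group to give the ratio.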

[1] = dose: 50.0 mg/kg/injection, schedule: Q01DX001 (ip), vehicle: Klucel (hydroxypropylcellulose) (HPC)
[2] = dose: 50.0 mg/kg/injection, schedule: Q01DX001 (ip), vehicle: saline
[3] = dose: 100.0 mg/kg/injection, schedule: Q01DX001 (ip), vehicle: saline
[4] = dose: 200.0 mg/kg/injection, schedule: Q01DX001 (ip), vehicle: saline
[5] = dose: 400.0 mg/kg/injection, schedule: Q01DX001 (ip), vehicle: saline
[6] = dose: 100.0 mg/kg/injection, schedule: Q01DX009 (ip), vehicle: saline
[7] = dose: 200.0 mg/kg/injection, schedule: Q01DX009 (ip), vehicle: saline
[8] = dose: 100.0 mg/kg/injection, schedule: Q04DX002 (ip), vehicle: saline with Tween-80
[9] = dose: 200.0 mg/kg/injection, schedule: Q04DX002 (ip), vehicle: saline with Tween-80
[10] = dose: 400.0 mg/kg/injection, schedule: Q04DX002 (ip), vehicle: saline with Tween-80
[11] = dose: 100.0 mg/kg/injection, schedule: Q01DX009 (ip), vehicle: Klucel (hydroxypropylcellulose) (HPC)
[12] = dose: 400.0 mg/kg/injection, schedule: Q01DX009 (ip), vehicle: Klucel (hydroxypropylcellulose) (HPC)

Measured: T/C

[C-]#[N+]C(C)(C)CC(C)(C)C
inactive: dose: 18.75 mg/kg/injection, schedule: Q04DX003 (ip), vehicle: acetone 103 % of control | dose: 33.0 mg/kg/injection, schedule: Q01DX001 (ip), vehicle: Klucel (hydroxypropylcellulose) (HPC) 110 % of control | dose: 33.0 mg/kg/injection, schedule: Q01DX001 (ip), vehicle: saline 104 % of control | dose: 37.5 mg/kg/injection, schedule: Q04DX003 (ip), vehicle: acetone 109 % of control | [1] 105 % of control | [2] 106 % of control | dose: 75.0 mg/kg/injection, schedule: Q01DX001 (ip), vehicle: Klucel (hydroxypropylcellulose) (HPC) 96 % of control | dose: 75.0 mg/kg/injection, schedule: Q01DX001 (ip), vehicle: saline 104 % of control | dose: 75.0 mg/kg/injection, schedule: Q04DX003 (ip), vehicle: acetone 107 % of control | dose: 110.0 mg/kg/injection, schedule: Q04DX003 (ip), vehicle: saline 94 % of control | dose: 170.0 mg/kg/injection, schedule: Q04DX003 (ip), vehicle: saline 106 % of control

COc1cccc2c1CCC1=C2CC=C2CC3(CCC21C)OCCO3 (configuration not stated)
inactive: dose: 100.0 mg/kg/injection, schedule: Q01DX009 (sc), vehicle: steriod suspending solution 91 % of control | dose: 200.0 mg/kg/injection, schedule: Q01DX009 (sc), vehicle: steriod suspending solution 101 % of control | dose: 400.0 mg/kg/injection, schedule: Q01DX009 (sc), vehicle: steriod suspending solution 106 % of control

CCCC1C2C(=O)N(c3ccccc3)C(=O)C2ON1c1ccccc1 (configuration not stated)
inactive: [2] 104 % of control | [3] 98 % of control | [4] 101 % of control | [5] 106 % of control

O=[N+]([O-])c1ccc(NCCNC(c2ccccc2)(c2ccccc2)c2ccccc2)c([N+](=O)[O-])c1
inactive: dose: 50.0 mg/kg/injection, schedule: Q01DX009 (ip), vehicle: saline 96 % of control | [3] 87 % of control | [6] 91 % of control | [4] 90 % of control | [7] 93 % of control

Cc1[nH]c(C(=O)OCc2ccccc2)c(C)c1C(=O)OCc1ccccc1
inactive: dose: 12.0 mg/kg/injection, schedule: Q01DX001 (ip), vehicle: Klucel (hydroxypropylcellulose) (HPC) 94 % of control | dose: 25.0 mg/kg/injection, schedule: Q01DX001 (ip), vehicle: Klucel (hydroxypropylcellulose) (HPC) 100 % of control | [1] 97 % of control | dose: 200.0 mg/kg/injection, schedule: Q01DX001 (ip), vehicle: saline with Tween-80 102 % of control | dose: 400.0 mg/kg/injection, schedule: Q01DX001 (ip), vehicle: saline with Tween-80 102 % of control

CCN(CC)CCN1C(=O)C(C)C=C(C)C=C1C (configuration not stated)
inactive: dose: 9.0 mg/kg/injection, schedule: Q04DX003 (ip), vehicle: other 97 % of control | dose: 18.0 mg/kg/injection, schedule: Q04DX003 (ip), vehicle: other 92 % of control | dose: 19.0 mg/kg/injection, schedule: Q01DX009 (ip), vehicle: other 105 % of control | dose: 38.0 mg/kg/injection, schedule: Q01DX009 (ip), vehicle: other 105 % of control | dose: 75.0 mg/kg/injection, schedule: Q01DX001 (ip), vehicle: other 100 % of control | dose: 75.0 mg/kg/injection, schedule: Q01DX009 (ip), vehicle: other 105 % of control | dose: 75.0 mg/kg/injection, schedule: Q04DX003 (ip), vehicle: other 91 % of control

Cc1ccc(O)c(C(=O)C(C)CCCC(C)C)c1 (configuration not stated)
inactive: dose: 75.0 mg/kg/injection, schedule: Q01DX009 (ip), vehicle: Klucel (hydroxypropylcellulose) (HPC) 89 % of control | dose: 150.0 mg/kg/injection, schedule: Q01DX009 (ip), vehicle: Klucel (hydroxypropylcellulose) (HPC) 94 % of control | dose: 300.0 mg/kg/injection, schedule: Q01DX009 (ip), vehicle: Klucel (hydroxypropylcellulose) (HPC) 100 % of control

CCCCC(F)C(Br)C(=O)O (configuration not stated)
inactive: [8] 97 % of control | [9] 87 % of control | [10] 93 % of control

O=[N+]([O-])c1ccc(OCCCBr)c(Cl)c1
inactive: [6] 103 % of control | [7] 108 % of control | dose: 400.0 mg/kg/injection, schedule: Q01DX009 (ip), vehicle: saline 120 % of control

CC(=O)OC1OC(COC(=O)c2ccccc2)C(OC(=O)c2ccccc2)C1OC(=O)c1ccccc1 (configuration not stated)
inactive: dose: 100.0 mg/kg/injection, schedule: Q01DX001 (ip), vehicle: Klucel (hydroxypropylcellulose) (HPC) 118 % of control and 95 % of control | [11] 92 % of control | dose: 200.0 mg/kg/injection, schedule: Q01DX001 (ip), vehicle: Klucel (hydroxypropylcellulose) (HPC) 97 % of control and 92 % of control | dose: 400.0 mg/kg/injection, schedule: Q01DX001 (ip), vehicle: Klucel (hydroxypropylcellulose) (HPC) 101 % of control and 92 % of control | [12] 92 % of control

CCOC(=O)CCCN(c1sc(C)c(C)c1C(=O)OCC)S(=O)(=O)c1ccc(C)cc1
inactive: dose: 50.0 mg/kg/injection, schedule: Q01DX009 (ip), vehicle: Klucel (hydroxypropylcellulose) (HPC) 86 % of control | dose: 50.0 mg/kg/injection, schedule: Q04DX003 (ip), vehicle: saline with Tween-80 97 % of control | [11] 105 % of control | dose: 100.0 mg/kg/injection, schedule: Q04DX003 (ip), vehicle: saline with Tween-80 97 % of control | dose: 200.0 mg/kg/injection, schedule: Q01DX009 (ip), vehicle: Klucel (hydroxypropylcellulose) (HPC) 86 % of control | dose: 200.0 mg/kg/injection, schedule: Q04DX003 (ip), vehicle: saline with Tween-80 97 % of control | [12] 90 % of control | dose: 400.0 mg/kg/injection, schedule: Q04DX003 (ip), vehicle: saline with Tween-80 101 % of control

CC(C)(C)OC(=O)CNC(=O)CCl
inactive: dose: 100.0 mg/kg/injection, schedule: Q04DX003 (ip), vehicle: saline 96 % of control | dose: 200.0 mg/kg/injection, schedule: Q04DX003 (ip), vehicle: saline 95 % of control

O=C(O)CCC(=O)c1ccc2ccc3cccc4ccc1c2c34
inactive: [3] 98 % of control | [4] 102 % of control | [5] 103 % of control

CC[N+](C)(C)CCC#N
inactive: dose: 10.0 mg/kg/injection, schedule: Q01DX001 (ip), vehicle: saline 95 % of control | dose: 20.0 mg/kg/injection, schedule: Q01DX001 (ip), vehicle: saline 101 % of control | dose: 40.0 mg/kg/injection, schedule: Q01DX001 (ip), vehicle: saline 101 % of control

CCOC(=O)CC(CC(=O)OCC)C(=O)OCC
inactive: dose: 100.0 mg/kg/injection, schedule: Q04DX002 (ip), vehicle: saline 104 % of control | dose: 200.0 mg/kg/injection, schedule: Q04DX002 (ip), vehicle: saline 96 % of control | dose: 400.0 mg/kg/injection, schedule: Q04DX002 (ip), vehicle: saline 107 % of control

COC(=O)c1ccccc1N(C)C(=O)c1cc(OC)c(OC)c(OC)c1
inactive: [8] 108 % of control | [9] 94 % of control | [10] 91 % of control

CCOCC1COC(c2ccc3c(c2)OCO3)O1 (configuration not stated)
inactive: dose: 222.0 mg/kg/injection, schedule: Q01DX Z (ip), vehicle: methylcellulose (MC) 102 % of control | dose: 333.0 mg/kg/injection, schedule: Q01DX Z (ip), vehicle: methylcellulose (MC) 104 % of control | dose: 500.0 mg/kg/injection, schedule: Q01DX Z (ip), vehicle: methylcellulose (MC) 102 % of control

Nc1ncnc2c1ncn2C1CC(CO)C(O)C1O (configuration not stated)
inactive: dose: 2.0 mg/kg/injection, schedule: Q01DX015 (ip), vehicle: Klucel (hydroxypropylcellulose) (HPC) 114 % of control | dose: 3.0 mg/kg/injection, schedule: Q01DX015 (ip), vehicle: Klucel (hydroxypropylcellulose) (HPC) 91 % of control | dose: 4.4 mg/kg/injection, schedule: Q01DX015 (ip), vehicle: Klucel (hydroxypropylcellulose) (HPC) 93 % of control | dose: 6.25 mg/kg/injection, schedule: Q01DX009 (ip), vehicle: carboxymethylcellulose (CMC) 98 % of control | dose: 6.7 mg/kg/injection, schedule: Q01DX015 (ip), vehicle: Klucel (hydroxypropylcellulose) (HPC) 96 % of control | dose: 10.0 mg/kg/injection, schedule: Q01DX015 (ip), vehicle: Klucel (hydroxypropylcellulose) (HPC) 97 % of control | dose: 12.5 mg/kg/injection, schedule: Q01DX009 (ip), vehicle: carboxymethylcellulose (CMC) 97 % of control | dose: 15.0 mg/kg/injection, schedule: Q01DX015 (ip), vehicle: Klucel (hydroxypropylcellulose) (HPC) 98 % of control | dose: 25.0 mg/kg/injection, schedule: Q01DX009 (ip), vehicle: carboxymethylcellulose (CMC) 89 % of control | [2] 93 % of control | [3] 102 % of control | [4] 91 % of control | [5] 88 % of control
